Reference: US20050053611A1, “Pharmaceutical kit comprising anti-human seminal plasma protein single chain antibody/human carboxypeptidase fusion protein and prodrug” (priority 2001, published 2005)

What was measured:
[1] = tested on: PC cells (PC-3 and PC-3m); test: colony formation assay (soft agar culture); format: cell-based, human; conditions: 2 weeks
Method: 2) Colony formation assay. The colony formation assay was performed using soft agar culture method. 9 different groups were included in the assay: {circle over (1)}MTX+PC cell, {circle over (2)}MTX-α-Phe+PC cell, {circle over (3)}fusion protein+PC cell, {circle over (4)}MTX-α-Phe+CP-A+PC cell, {circle over (5)}MTX-α-Phe+fusion protein+PC cell, {circle over (6)}MTX-α-Arg+PC cell, {circle over (7)}MTX-α-Arg+CP-A+PC cell, {circle over (8)}MTX-α-Arg+fusion protein+PC cell and {circle over (9)}control group (PC cell only). All the tested prodrugs were used in three different concentrations, i.e. each of MTX, MTX-α-Phe and MTX-α-Arg was used at 0.4, 4, and 40 μg/ml. CP-A was used in a volume of 10 μl (2.5 mU/μl) and fusion protein was used in a volume of 10 μl (1 mg/ml). The density of PC cell was 200/well. The plate was incubated in a CO2 incubator at 37° C. for 2 weeks. After incubation, PC cells were fixed by a mixture of acetic acid and ethanol (1:3) for 2 h. Then microscopy was employed to calculate the percentage of colony formation.

[2] = tested on: PC-3m tumor; conditions: for histopathologic examination of tumors: after 5 weeks of treatment; for average survival time / lifespan: from beginning of treatment till natural death
Method: Tumor Model: BALB/C nude mice aged 4-6 weeks and weight at 16-20 g were provided by the Experimental Animal Center of the Fourth Military Medical University (Xi'an, China) and bred in a sterile isolator. They were derma-inoculated with 0.1 ml of PC-3m suspension (1×10^7 cells). The drugs were administrated when the volume of tumor was approximately 0.5 cm^3.
1) Groups and treatments. 56 nude mice carrying tumors were randomized into 7 groups: {circle over (1)}Control group, intravenously administered with 0.5 ml of saline; {circle over (2)}Treatment Group I, intravenously administered with MTX (5 mg/kg); {circle over (3)}Treatment Group II, intravenously administered with MTX-α-Phe (5.32 mg/kg) {circle over (4)}Treatment Group III, intravenously administered with 0.5 ml of anti-γ-SmMcAb-CP-A; {circle over (5)}Treatment Group IV, intravenously administered with 0.5 ml of the fusion protein; {circle over (6)}Treatment Group V, intravenously administered with 0.5 ml of γ-SmMcAb-CP-A first and MTX-α-Phe (5.32 mg/kg) 72 h later (ADEPT-1); {circle over (7)}Treatment Group VI, intravenously administered with 0.5 ml of the fusion protein first and MTX-α-Phe (5.32 mg/kg) 72 h later (ADEPT-2).
Tumor-inhibition rate: The major diameter and minor diameter of the tumor were measured every week after the administration of drugs. The mass of tumor (m=½×major diameter×minor diameter^2) and tumor-inhibition rate (TIR) was thus calculated according the following formula. [formula]
Cell cycle of tumor cells is calculated by the formula: tc=[lg(1+G)/lg(m2/m1)]×t (G: a component of the tumor growth group; m2, m1: tumor mass of a given component of the group observed at different time points; t: interval between observations).
Survival time of the nude mice refers to the period from the beginning of the treatment till natural death.
Histopathologic observation includes gross specimen examination and microscopic examination. Samples of tumor and organs were fixed with 100 ml/L formalin. Pathologic section was stained […] underwent microscopy observation.

[3] = tested on: PC cells (PC-3 and PC-3m); format: cell-based; conditions: MTT, 48 h; for lethal / cytotoxic effect to PC cells: lethal curves
Method: 1) MTT assay: PC-3 and PC-3m cells were seeded separately to a 96-well plate at 1×10^4 cells/ml/well. MTX, MTX-α-Phe, MTX-α-Phe+CP-A, MTX-α-Phe+fusion proteins and MTX-α-Arg, MTX-α-Arg+fusion proteins at different concentrations were also added into those wells. 3 parallel wells were set for each concentration. The cells were incubated in a CO2 incubator for 48 h. 20 μl of a solution of thiazole blue in PBS (5 mg/ml) was added to each well and incubated at 37° C. for 4 h. The culture medium and free thiazole blue were discarded and 0.1 ml of dimethylsulfoxide was added to each well. The absorbance at 405 nm was measured and mortality rate was calculated.

[4] = tested on: PC cells (PC-3 and PC-3m); test: cell cycle kinetic analysis by flow cytometry; format: cell-based, human
Method: 3) Kinetic effects of the fusion protein/prodrug on the growth cycle of PC cells: PC-3 and PC-3m cells were added to several 10 ml culture flasks (10^6/ml). MTX, MTX-α-Arg, MTX-α-Phe+CP-A, MTX-α-Phe+fusion protein at different concentrations were added to the flasks, respectively. The cells were collected at 6 h, 16 h and 24 h after the addition of the tested drugs and washed twice with cold saline and then fixed with 950 ml/L ethanol. The cells were stained by routine DNA staining method. Flow cytometry was employed in the kinetic analysis (FACS Profile II; Laser rate: 15 mW; Green light filter: 488 nm).

| Compound | colony-formation rate [1] | tumor size compared with control ([2]; P>0.05) | histopathologic examination of tumors [2] | average survival time / lifespan [2] | tumor cell growth cycle ([2]; mouse, in vivo) | lethal / cytotoxic effect to PC cells [3] | IC50 ([3]; PC cells, read-out: IC50 of the prodrug) | kinetic change of cell cycle [4] | colony formation ([1]; P<0.001) | volume of tumors ([2]; by the 6th week) | growth of tumors ([2]; from the 2nd week on) | living quality of mice ([2]; mouse, in vivo) | whole blood count ([2]; mouse, in vivo) | cell proliferation index [4] |
| --- | --- | --- | --- | --- | --- | --- | --- | --- | --- | --- | --- | --- | --- | --- |
| CN(Cc1cnc2nc(N)nc(N)c2n1)c1ccc(C(=O)N[C@@H](CCC(=O)O)C(=O)N[C@@H](Cc2ccccc2)C(=O)O)cc1 [MTX-α-Phe, methotrexate-α-phenylalanine] | 88% | small compared with that of the control but the difference was not significant | characteristics typical of adenocarcinoma | 31 ± 12.2 days | 1.7±0.2 | no lethal effect | 72 mM | did not show any significant kinetic change | – | – | – | – | – | – |
| CN(Cc1cnc2nc(N)nc(N)c2n1)c1ccc(C(=O)NC(CCC(=O)O)C(=O)NC(CCCNC(=N)N)C(=O)O)cc1 (stereo not drawn) [MTX-α-Arg] | 91% | – | – | – | – | no lethal effect | – | – | – | – | – | – | – | – |
| CN(Cc1cnc2nc(N)nc(N)c2n1)c1ccc(C(=O)N[C@@H](CCC(=O)O)C(=O)O)cc1 [MTX, Methotrexate] | – | – | a large area of necrosis in the tumors | 67 ± 13.8 days | 2.5±0.2 | – | – | – | none of these groups had any colony formed | significantly smaller than that in other groups | decreased | poor living quality | significantly lower than that of the ADEPT groups | decreased significantly |
